Data as given in US20170049739A1, “PROSTACYCLIN COMPOUNDS, COMPOSITIONS AND METHODS OF USE THEREOF” (INSMED INCORPORATED, priority 2013, published 2017).
“Also recorded” adds a separate entry of the source. Blank lines part the entries; values can stand above or below the molecule they belong to.

Columns and labels:
esterase = assay: Esterase mediated conversion of treprostinil compounds to treprostinil; format: in vitro ADME; conditions: 37° C., up to 1 hr
Procedure: A set of studies was conducted to determine the conversion kinetics to treprostinil of linear treprostinil compounds versus various branched treprostinil compounds. 0.4 mM of linear C8-TR or branched treprostinil compounds 2-dimethyl-1-propanyl-TR, 3,3-dimethyl-1-butanyl-TR, 2-ethyl-1-butanyl-TR, 5-nonanyl-TR, or 3-pentanyl-TR (see below for structures) were incubated with 0.2 U esterase at 37° C. for 1 hour, and the conversion (% of total) was calculated at 0.25, 0.5, 0.75, or 1 hour incubation time. • C8-TR (i.e., the compound of Formula (A) wherein R2=
The conversion is relative to the C8-TR compound and conversion was measured at 1 hr. post esterase incubation, • C8-TR (i.e., the compound of Formula (A) wherein R2=
Conversion was measured at 1 hr. post esterase incubation. • 4C7-TR (i.e., the compound of Formula (A) wherein R2=

EP2 prostanoid receptor = target: T1, EP2 prostanoid receptor (Homo sapiens, UniProt P43116); assay: GloSensor cAMP assay in CHO-K1 cells co-transfected with the EP2 receptor; format: cell-based; conditions: for change of potency with incubation time / release profile: dose response curves at 0.5 to 8 hr incubation; for ranking of activity of the treprostinil compounds: unformulated compounds, 10 μM and 5 μM, FIG. 21
T1 construct: host or cells: CHO-K1 cells, transiently co-transfected with pGloSensor-22F cAMP plasmid and pGEM-3Zf(+)
Description: cAMP is a second messenger involved in signal transduction of G-protein coupled receptors (GPCRs) acting through Ga-s and Ga-i proteins. Because the treprostinil receptor is a GPCR, the assay provides an indication of whether the respective prostacyclin compound (or metabolite thereof) binds its receptor and activates the GPCR cell signaling cascade. The GloSensorTM assay harnesses a genetically modified form of firefly luciferase into which a cAMP-binding protein moiety has been inserted. Upon binding of cAMP, a conformational change is induced leading to increased light output. The EP2 prostanoid receptor was co-transfected with the GloSensorTM plasmid (Promega) into CHG-K1 cells as follows. CHO-K1 cells were harvested when the monoloayer was at 50-90% confluence. First, cells were washed with 5 mL PBS. […] The media was aspirated, and the cell pellet was resuspended in 10 mL of growth media. Cell number was determined using a hemacytometer. Each well of a culture treated 96 […] bottom plate (Costar, Cat #: 3917) was seeded with 1×10^4 cells per 100 μL antibiotic-free growth media. […] For small scale transfections of up to 20 wells, the pGLoSensor-22F cAMP plasmid (Promega, Cat #: E2301) (2 μg): (EP2) (10 ng) (Origene, Cat #: SC126558) : pGEM-3Zf(+) (10 ng) (Promega, Cat #: P2271) ratio was diluted to a final concentration of 12.6 ng/μL (total plasmid) in Opti-MEM I reduced-serum medium (Life Technologies, Cat #: 1985062). Next, 6 μL of FuGENE HD transfection reagent (Promega, Cat #: E2311) was added to 160 μL of diluted plasmid and mixed carefully by gentle pipetting. The complex was incubated at room temperature for 0 to 10 minutes, and then 8 μL of the complex was added per well of a 96 well white assay plate (Costar, Cat #: 3917) and gently mixed without disturbing the cell monolayer. […] Following incubation, cells were treated and analyzed. For larger scale transfections, the aforementioned steps were scaled up accordingly, and cells were frozen following the last incubation. In order to prepare frozen transfected CHO-K1 cells, the media was aspirated from culture flasks and cells were rinsed with 5 mL PBS. […] Cell number was determined using a hemacytometer. The media was aspirated, and the cell pellet was resuspended in freezing media (Millipore, cat #: S-002-5F) at 2.5×10^6 cells/vial. Transfected cells were incubated overnight at -80° C. before transfer to liquid nitrogen for long term storage. […] In preparation for cAMP measurement, the cells were equilibrated with the GloSensor cAMP reagent prior to treatment. For equilibration, the medium was carefully removed from the individual well. Next, 100 μL of equilibration medium (6% v/v of Glosensor Reagent stock solution (Promega, Cat #: E291), 10% FBS (Hyclone, Cat #: SH30071.03) and 88% CO2 independent medium (Life Technologies, Cat #: 18045088)) was added per well of the 96-well plate, and added to the side of each well. The plate was then incubated for 2 hours at room temperature. A first pre-read measurement was taken using a microplate reader (MicroLumat Plus). Plates were incubated for an additional 10 minutes at room temperature, followed by a second pre-read measurement. […] Following treatment, each plate was read every 5 minutes for the duration of the assay using a microplate reader (MicroLumat Plus). In order to determine the fold change in cAMP relative to the control, the transfection efficiency was first determined by dividing the second pre-read measurement by the average of the corresponding pre-read measurements. Next, the normalized relative light units (RLUs) of the samples were determined by dividing the plate read measurement by the transfection efficiency. The fold change in cAMP relative to the control was then determined by dividing the normalized RLU of the samples by the normalized RLU of the control. […] Results from the three highest concentrations are provided at FIG. 3A (10 μM), FIG. 3B (1 μM) and FIG. 3C (0.1 μM). […]

[1] = Treprostinil alkyl ester conversion to treprostinil in rat lung tissue homogenate; format: in vitro ADME; conditions: 37° C., 200 nM, 10 mg/mL of protein, 4 hours
Procedure: Treprostinil alkyl ester conversion to treprostinil was also measured in the presence of rat, dog and monkey lung tissue homogenate at 37° C. Mere, data were calculated based on fit of exponential increase to the maximum (experiments performed in duplicate). The results of this study are provided below in Table 2A and FIG. 37. […] Both FIG. 37 experiments (left and right graphs) were performed in duplicate and the lines represent nonlinear exponential regression assuming 1 phase decay.

[2] = Particle size characterization of treprostinil compositions (QELS); format: physicochemical; conditions: particles of compositions comprising the alkyl ester (FIG. 2)
Procedure: All particle size measurements were performed using a Wyatt Technology Mobius™ Zeta Potential/ Particle Sizing Instrument in Quasi-elastic light scattering (QELS) mode. Composition aiiquots were diluted 10-fold in pre-filtered (0.02 μm pore filter) ultrapure of deionized H2O. Light scattering data was collected and converted into particle size and size distribution using Dynamics® v. […] Reported average particle size diameter is based on the cumulants model, which mathematically fits particle diffusion constants (determined by the raw scattering intensities of particles in a suspension) to obtain the particle size mean and a distribution of particle sizes around the mean diameter.
Particle uniformity was determined using the software-calculated polydispersity (% PD). Polydispersity is defined as the standard deviation of the particle size distribution from the mean particle size value. % PD normalizes the polydispersity to the mean diameter by dividing by the mean size and multiplylng by 100. These parameters indicate whether a particle suspension has one or more size populations of particles (monomodal versus multimodal). […]
Dynamics® polydispersity parameter represents a monodisperse population of particles if % PD≦15. A calculated % PD≧57% represents a polydisperse population of particles.

physchem = conditions: organic solvent or mixture, thermodynamic from solid
Procedure: Selected treprostinil derivatives were evaluated for the use in a metered dose inhaler (MDI).
5 mg of each treprostinil compound was added in a glass bottle. Specific amount of ethanol was added by weight. An MDI valve was crimped to each bottle, and HFA propellant added through the valve to the total volume of 5 mL. Compounds were allowed to dissolve for 24 hours at room temperature. The formulations were assessed visually for solubility. The goal was to estimate the minimum ethanol concentration required to solubilize each compound in propellant.
Soluble samples presented as clear and colorless solutions. […] Non-soluble samples had white precipitate or crystals formed. Ethanol was added as a solubility aid.

[3] = Treprostinil pharmacokinetics in anaesthetised, ventilated rats after nebulized dosing; format: in vivo, rat; conditions: nebulized solution
Procedure: Male Sprague Dawley rats wrere anaesthetised and prepared with endotracheal tube for ventilation. The right femoral vein was cannulated to facilitate blood collections. Terminal lung samples were taken for analysis only 6 hours after dosing. […] Systemic blood pressure (mSAP), heart rate (HR), and arterial oxygen saturation (SaO2). Physiologic parameters were measured during normoxia (fraction of inspired oxygen [FrO2]=0.21, SaO2 ≈90%) and for 2 to 3 hours during hypoxia (FrO2=0.10, SaO2≈50%).

[4] = dog, in vivo
Procedure: Twelve beagle dogs of either sex were randomly assigned to different inhaled doses of treprostinil in PBS or the compound of Formula (A) wherein R2=
Formulations were nebulized with an Aeroneb nebulizer (MMAD: 2.5-4 μm) delivered into a 500 ml expansion chamber. Formulations were nebulized for 2 min at ventilator settings of 90 ml/breath, 15 breaths/min (delivered volume=2.7 L) and collected on a filter. Drug amount (μg) on the filter was measured by HPLC to calculate the concentration of drug delivered through the ventilator circuit (μg/L).
Dosimetry was performed in propofol-anesthetized dogs in which nebulized drugs were introduced into a mixing chamber interposed on the inspiratory limb of a canine respirator. Technical trials were performed before each experiment to measure the concentration of drug (μg/L) delivered for each breath. The inhaled drug dose (μg/kg) was calculated using the formula: Inhaled Drug Dose (μg/kg)=Drug Cone. (μg/L)×Minute Ventilation (L/min.)×Time (min.)/Body Weight (kg).
Dosimetry was performed in propofol-anesthetized, artificially ventilated dogs in which nebulized drugs were introduced into a mixing chamber interposed on the inspiratory limb of the respirator. Technical trials were performed before each experiment measuring the concentration of drug (μg/L) per breath, minute ventilation and time required to achieve a targeted pulmonary dose. […] Clinical signs (cough, rapid shallow breathing, emesis and pale gums) were also monitored.

cough reflex = assay: Cough reflex in guinea pigs exposed to aerosols; format: in vivo, guinea pig
Procedure: has the following components: Aerosols were generated with an Ultra-Neb Pro nebulizer (nebulizer output 0.36 mL/min.) that was mixed with inspired air delivered at a rate of 2 L/min. […] Coughs were detected by visual observations, plethysmograph recordings and cough sounds.

[5] = rat, in vivo
Procedure: Nebulized treprostinil (TRE) solution and treprostinil alkyl ester formulations were administered (at 15 nmol/kg, or […] TRE equivalent) to anaesthetised-ventilated rats (6-hour studies) or to conscious rats by nose-only inhalation (24-hour studies). Blood and lung samples were collected at specified time points. TRE and treprostinil alkyl ester concentrations in blood plasma and lung tissue were measured by HPLC/MS/MS analysis.
Male Sprague Dawley rats were placed in restraining tubes and exposed to nebulised drugs via the Jaeger-NYU Nose-Only Directed-Flow Inhalation Exposure System (CH Technologies, Westwood, N.J.) (FIG. 31), Test articles (6 mL at specific concentration) were nebulised using the Aeroneb nebuliser to deliver a predetermined estimated pulmonary dose. Blood and lung tissue samples were taken at selected times after nebulization of the drags over a 24-hour period.

[6] = Tolerability and pharmacokinetics in rats after 14 consecutive days of inhaled C16-TR (T748); format: in vivo, rat; conditions: T748, 0.6-18 μg/kg inhaled
Procedure: Body weights were recorded daily and organ weights (lungs, heart, liver) were measured 24 hr, after the last drug dose.

[7] = nebulized concentration of 30 μg/mL

T1 sequence (P43116 whole entry): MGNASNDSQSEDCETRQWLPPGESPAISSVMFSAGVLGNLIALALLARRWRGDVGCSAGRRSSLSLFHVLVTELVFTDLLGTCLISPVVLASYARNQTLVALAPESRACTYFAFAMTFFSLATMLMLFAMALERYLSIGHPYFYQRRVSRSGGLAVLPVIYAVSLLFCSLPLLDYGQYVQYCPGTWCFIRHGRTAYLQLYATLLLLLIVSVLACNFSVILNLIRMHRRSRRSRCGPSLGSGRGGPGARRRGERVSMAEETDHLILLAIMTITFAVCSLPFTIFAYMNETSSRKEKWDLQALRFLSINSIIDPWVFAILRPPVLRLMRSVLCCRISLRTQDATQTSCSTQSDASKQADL

Molecule: CCCCC[C@H](O)CC[C@@H]1[C@H]2Cc3cccc(OCC(=O)OC(CCCC)CCCC)c3C[C@H]2C[C@H]1O [5C9-TR, 5-nonanyl treprostinil]
esterase mediated conversion rate compared with other compounds (esterase): slower conversion rate than the linear compound C8-TR
esterase mediated conversion rate compared with other compounds (esterase; listed as 5-nonanyl-TR): slower conversion rate than linear C8-TR
change of potency with incubation time / release profile (EP2 prostanoid receptor): increases with incubation time; also recorded: delayed release profile
ranking of activity of the treprostinil compounds (EP2 prostanoid receptor): C12-TR>C14-TR>5-nonanyl-TR>C16-TR

Molecule: hexadecyl-treprostinil [C16-TR]
release kinetics of treprostinil over 24 hours [5]: independent of dose
tolerability, body weights and organ weights [6]: no tolerability issues or significant changes (relative to PBS) in body weights and organ weights; also recorded: well tolerated
change of potency with incubation time / release profile (EP2 prostanoid receptor): increases with incubation time
ranking of activity of the treprostinil compounds (EP2 prostanoid receptor): C12-TR>C14-TR>5-nonanyl-TR>C16-TR
adverse clinical signs in the dose-response study [4]: adverse clinical signs were seen in only 1 dog

Molecule: treprostinil decyl ester [C10-TR]
duration of cAMP levels (EP2 prostanoid receptor; 5 μM, FIG. 4 and FIG. 5): sustained significantly longer than free treprostinil
cAMP levels compared with free treprostinil (EP2 prostanoid receptor; 10 μM, FIG. 3A): equivalent to free treprostinil
time for which cAMP level was sustained (EP2 prostanoid receptor; 10 μM, FIG. 3A): at least 6 hours
cAMP response compared with free treprostinil (EP2 prostanoid receptor; compositions, 5 μM, FIG. 4): greater than or equivalent to the response induced by free treprostinil
cAMP response levels of unformulated compounds (EP2 prostanoid receptor; unformulated alkyl esters, 5 μM, FIG. 5): equivalent to free treprostinil
polydispersity (% PD) [2]: around 15 % PD

More lines, main results first:

Rate of treprostinil alkyl ester conversion [1]: 0.4 nmOL/h * g of protein
change of potency with incubation time / release profile (EP2 prostanoid receptor): increases with incubation time
polydispersity (% PD) [2]: around 15 % PD
solubility at 24 h (physchem): < 1000 µg/mL
solubility at 24 h (physchem; Solubility in HFA-134a with added ethanol): < 1000 µg/mL
Molecule: CCCCCCCCCCCCCCOC(=O)COc1cccc2c1C[C@H]1C[C@@H](O)[C@H](CC[C@@H](O)CCCCC)[C@H]1C2 [C14-TR, tetradecyl-treprostinil]

time by which measurable levels of TRE were not seen in the lungs [3]: < 6 h
time to which measurable levels of TRE were seen in the blood plasma [3]: ≤ 4 h
time for which cAMP level was sustained (EP2 prostanoid receptor; 10 μM, FIG. 3A): not exhibited
Max cAMP level (Fold) (EP2 prostanoid receptor; compositions shown in FIG. 3, 8 hours time course): ~16 Fold
Max cAMP level (Fold) (EP2 prostanoid receptor; compositions shown in FIG. 4, 5 μM, 8 hours time course): ~14 Fold
Max cAMP level (Fold) (EP2 prostanoid receptor; effect of nebulization study (FIG. 6), head prints (5 μM)): ~15 Fold
time by which plasma treprostinil was below the level of quantification ([4]; both, beagle): ≤ 4 h
treprostinil plasma Cmax relative to similar inhaled doses of T623 ([4]; both, beagle): 15-20 fold
period over which plasma levels of treprostinil were sustained [4]: disappeared within a few hours
exposure concentration consistently evoking cough (cough reflex; guinea pigs, aerosol 10 min.): ≥ 30 µg/mL
cough bouts (cough reflex; [7]): 1-4
guinea pigs with cough (cough reflex; [7]): 7 of 7
total number of coughs (cough reflex; [7]): 36+9 coughs
Molecule: CCCCC[C@H](O)CC[C@@H]1[C@H]2Cc3cccc(OCC(=O)O)c3C[C@H]2C[C@H]1O [Treprostinil, (1R,2R,3aS,9aS)-[[2,3,3a,4,9,9a-hexahydro-2-hydroxy-1-[(3S)-3-hydroxyoctyl]-1H-benz[f]inden-5-yl]oxy]acetic acid]
change of potency with incubation time / release profile (EP2 prostanoid receptor): potency decreases with increasing incubation time
